These results are taken from patent US20150299188A1, “HETEROCYCLIC COMPOUND” (priority 2012, published 2015).

The subject of the assay is FLAP (5-lipoxygenase activating protein). The assay is described as follows: In vitro binding test: displacement of [3H]-7-chloro-3-(5-((3-fluoropyridin-2-yl)methoxy)-2-methylphenyl)-3,4-dihydroquinazolin-2(1H)-one from Sf9 microsome fractions. Details: species or system human and mouse. To be noted: Sf9 microsome fractions expressing FLAP; 100% = radioligand binding with 10 μM sodium 3-(3-(tert-butylsulfanyl)-1-(4-chlorobenzyl)-5-isopropyl-1H-indol-2-yl)-2,2-dimethylpropanoate, 0% = DMSO; test compound concentration not given. In a few lines:
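Sf9 microsomes expressing human or mouse FLAP (2 μg/mL) preincubated with compound 10 min at room temperature, then 120 nM tritiated quinazolinone ligand added for 60 min; buffer 100 mM Tris-HCl pH 7.5 with NaCl, EDTA, DTT, glycerol, Tween20. Bound ligand filtered and counted by scintillation; 10 μM indole propanoate defines 100% inhibition, DMSO 0%.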
(Loss of bound radioactivity is the signal in a displacement assay; it reports binding, not function.)

Turning to `Cc1cc2c(cc1N1Cc3cn(CC(F)(F)F)c(=O)cc3NC1=O)OC(c1ncccc1F)CC2` (centres unmarked) [Example 38, 3-(2-(3-fluoropyridin-2-yl)-6-methyl-3,4-dihydro-2H-chromen-7-yl)-6-(2,2,2-trifluoroethyl)-4,6-dihydropyrido[4,3-d]pyrimidine-2,7(1H,3H)-dione], the “inhibitory rate (%)” value was found to be 104%. Consider `Cc1cc2c(cc1N1Cc3c(cc(CCC(=O)O)nc3C3CC3)NC1=O)OC(c1ncccc1F)CC2` (centres unmarked) [Example 94, 3-(5-cyclopropyl-3-(2-(3-fluoropyridin-2-yl)-6-methyl-3,4-dihydro-2H-chromen-7-yl)-2-oxo-1,2,3,4-tetrahydropyrido[4,3-d]pyrimidin-7-yl)propanoic acid], for which the “inhibitory rate (%)” value stood at 104%. Next, `Cc1ccc(OCc2ncccc2F)cc1-n1c(=O)[nH]c2c(OCC3CC3)cccc2c1=O` [Example 353, 8-(cyclopropylmethoxy)-3-(5-((3-fluoropyridin-2-yl)methoxy)-2-methylphenyl)quinazoline-2,4(1H,3H)-dione]: 106%; `Cc1ccc(OCc2ncccc2F)cc1-n1c(=O)[nH]c2ncccc2c1=O` [Example 343, 3-(5-((3-fluoropyridin-2-yl)methoxy)-2-methylphenyl)pyrido[2,3-d]pyrimidine-2,4(1H,3H)-dione]: 101%; `COCCOc1cnc(C(F)(F)F)c2c1NC(=O)N(c1cc3c(cc1C)CCC(c1ncccc1F)O3)C2` (centres unmarked) [Example 110, 3-(2-(3-fluoropyridin-2-yl)-6-methyl-3,4-dihydro-2H-chromen-7-yl)-8-(2-methoxyethoxy)-5-(trifluoromethyl)-3,4-dihydropyrido[4,3-d]pyrimidin-2(1H)-one]: 99%. Take `Cc1cc2c(cc1N1Cc3c(ccnc3C(=O)NC3CC3)NC1=O)OC(c1ncccc1F)CC2` (centres unmarked) [Example 32, N-cyclopropyl-3-(2-(3-fluoropyridin-2-yl)-6-methyl-3,4-dihydro-2H-chromen-7-yl)-2-oxo-1,2,3,4-tetrahydropyrido[4,3-d]pyrimidine-5-carboxamide]: the “inhibitory rate (%)” value is 101%. Then `CC(C)(O)c1ccc2c(c1)NC(=O)N(c1cc(OCc3c(F)cccc3F)ccc1CCc1ccccc1)C2` [Example 260, 3-(5-((2,6-difluorobenzyl)oxy)-2-(2-phenylethyl)phenyl)-7-(2-hydroxypropan-2-yl)-3,4-dihydroquinazolin-2(1H)-one], with 106%; and `Cc1cc2c(cc1N1Cc3c(ccnc3C3CC3)NC1=O)OC(c1ncccc1F)CC2` (centres unmarked) [Example 25, 5-cyclopropyl-3-(2-(3-fluoropyridin-2-yl)-6-methyl-3,4-dihydro-2H-chromen-7-yl)-3,4-dihydropyrido[4,3-d]pyrimidin-2(1H)-one], with 99%.

`Cc1ccc(OCc2ncccc2F)cc1N1Cc2c(O)cccc2NC1=O` [Example 305, 3-(5-((3-fluoropyridin-2-yl)methoxy)-2-methylphenyl)-5-hydroxy-3,4-dihydroquinazolin-2(1H)-one]: the “inhibitory rate (%)” value was 103%. Next, `Cn1cc(-c2ncc(Cl)c3c2NC(=O)N(c2cc4c(cc2Cl)CCC(c2ncccc2F)O4)C3)cn1` (centres unmarked) [Example 102, 5-chloro-3-(6-chloro-2-(3-fluoropyridin-2-yl)-3,4-dihydro-2H-chromen-7-yl)-8-(1-methyl-1H-pyrazol-4-yl)-3,4-dihydropyrido[3,4-d]pyrimidin-2(1H)-one]: 101%; `Cc1ccc(OCc2c(F)cccc2F)cc1N1Cc2ccc(CN)cc2NC1=O` [Example 206, 7-(aminomethyl)-3-(5-((2,6-difluorobenzyl)oxy)-2-methylphenyl)-3,4-dihydroquinazolin-2(1H)-one]: 81%; `O=C1Nc2nccc(C(F)(F)F)c2CN1c1cc2c(cc1Cl)CCC(c1ncccc1F)O2` (centres unmarked) [Example 57, 3-(6-chloro-2-(3-fluoropyridin-2-yl)-3,4-dihydro-2H-chromen-7-yl)-5-(trifluoromethyl)-3,4-dihydropyrido[2,3-d]pyrimidin-2(1H)-one]: 105%. Next, `O=C1Nc2ccccc2CN1c1cc(OCc2ncccn2)ccc1Br` [Example 267, 3-(2-bromo-5-(pyrimidin-2-ylmethoxy)phenyl)-3,4-dihydroquinazolin-2(1H)-one]: 100%. With `Cc1ccc(OCc2ncccc2Cl)cc1N1Cc2nn(C)cc2NC1=O` [Example 265, 6-(5-((3-chloropyridin-2-yl)methoxy)-2-methylphenyl)-2-methyl-2,4,6,7-tetrahydro-5H-pyrazolo[4,3-d]pyrimidin-5-one], the “inhibitory rate (%)” value was determined as 82%. Then `O=C1CCCN1c1cc2c(c(C3CC3)n1)CN(c1cc3c(cc1Cl)CCC(c1ncccc1F)O3)C(=O)N2` (centres unmarked) [Example 86, 3-(6-chloro-2-(3-fluoropyridin-2-yl)-3,4-dihydro-2H-chromen-7-yl)-5-cyclopropyl-7-(2-oxopyrrolidin-1-yl)-3,4-dihydropyrido[4,3-d]pyrimidin-2(1H)-one], with 108%. Next, `O=C1Nc2cc(-c3nsc(=O)[nH]3)nc(C3CC3)c2CN1c1cc2c(cc1Cl)CCC(c1ncccc1F)O2` (centres unmarked) [Example 134, 3-(6-chloro-2-(3-fluoropyridin-2-yl)-3,4-dihydro-2H-chromen-7-yl)-5-cyclopropyl-7-(5-oxo-4,5-dihydro-1,2,4-thiadiazol-3-yl)-3,4-dihydropyrido[4,3-d]pyrimidin-2(1H)-one]: 91%; `COc1ncc(Cl)c2c1NC(=O)N(c1cc3c(cc1Cl)CCC(c1ncccc1F)O3)C2` (centres unmarked) [Example 80, 5-chloro-3-(6-chloro-2-(3-fluoropyridin-2-yl)-3,4-dihydro-2H-chromen-7-yl)-8-methoxy-3,4-dihydropyrido[3,4-d]pyrimidin-2(1H)-one]: 107%. For the compound `Cc1ccc(OCc2c(F)cccc2F)cc1N1Cc2ccc(C(N)=O)cc2NC1=O` [Example 196, 3-(5-((2,6-difluorobenzyl)oxy)-2-methylphenyl)-2-oxo-1,2,3,4-tetrahydroquinazoline-7-carboxamide], the “inhibitory rate (%)” value was found to be 97%.

Consider `Cn1cc(-c2ncc(F)c3c2NC(=O)N(c2cc4c(cc2Cl)CCC(c2ncccc2F)O4)C3)cn1` (centres unmarked) [Example 169, 3-(6-chloro-2-(3-fluoropyridin-2-yl)-3,4-dihydro-2H-chromen-7-yl)-5-fluoro-8-(1-methyl-1H-pyrazol-4-yl)-3,4-dihydropyrido[3,4-d]pyrimidin-2(1H)-one], for which the “inhibitory rate (%)” value was 92%. Then `O=C1Nc2cc(Cl)nc(C3CC3)c2CN1c1cc2c(cc1Cl)CCC(c1ncccc1F)O2` (centres unmarked) [Example 72, 7-chloro-3-(6-chloro-2-(3-fluoropyridin-2-yl)-3,4-dihydro-2H-chromen-7-yl)-5-cyclopropyl-3,4-dihydropyrido[4,3-d]pyrimidin-2(1H)-one], with 104%. Next, `O=C1COCCN1c1cc2c(c(C3CC3)n1)CN(c1cc3c(cc1Cl)CCC(c1ncccc1F)O3)C(=O)N2` (centres unmarked) [Example 120, 3-(6-chloro-2-(3-fluoropyridin-2-yl)-3,4-dihydro-2H-chromen-7-yl)-5-cyclopropyl-7-(3-oxomorpholin-4-yl)-3,4-dihydropyrido[4,3-d]pyrimidin-2(1H)-one]: 100%; `Cc1ccc(OCc2ncccc2F)cc1N1Cc2c(Cl)ncnc2NC1=O` [Example 318, 5-chloro-3-(5-((3-fluoropyridin-2-yl)methoxy)-2-methylphenyl)-3,4-dihydropyrimido[4,5-d]pyrimidin-2(1H)-one]: 62%; `Cc1ccc(OCc2c(F)cccc2F)cc1N1Cc2cc(CO)ccc2NC1=O` [Example 186, 3-(5-((2,6-difluorobenzyl)oxy)-2-methylphenyl)-6-(hydroxymethyl)-3,4-dihydroquinazolin-2(1H)-one]: 62%. Regarding `Cc1cc2c(cc1N1Cc3c(Cl)cnc(N4CCCC4)c3NC1=O)OC(c1ncccc1F)CC2` (centres unmarked) [Example 158, 5-chloro-3-(2-(3-fluoropyridin-2-yl)-6-methyl-3,4-dihydro-2H-chromen-7-yl)-8-(pyrrolidin-1-yl)-3,4-dihydropyrido[3,4-d]pyrimidin-2(1H)-one], the “inhibitory rate (%)” value stood at 99%.

In the case of `COC(=O)c1ccccc1CN1C(=O)N(c2cc(OCc3ncccc3F)ccc2C)Cc2c(Cl)cccc21` [Example 295, methyl 2-((5-chloro-3-(5-((3-fluoropyridin-2-yl)methoxy)-2-methylphenyl)-2-oxo-3,4-dihydroquinazolin-1(2H)-yl)methyl)benzoate], the “inhibitory rate (%)” value was found to be 102%. As to `CCCCOC(=O)/C=C/c1ccc(OCc2ncccc2F)cc1N1Cc2ccccc2NC1=O` [Example 225, butyl (2E)-3-(4-((3-fluoropyridin-2-yl)methoxy)-2-(2-oxo-1,4-dihydroquinazolin-3(2H)-yl)phenyl)acrylate], the “inhibitory rate (%)” value was 100%.

On to `O=C1Nc2cc(C3CC3)nc(C3CC3)c2CN1c1ccc2c(c1)OC(c1ncccc1F)CC2` (centres unmarked) [Example 90, 5,7-dicyclopropyl-3-(2-(3-fluoropyridin-2-yl)-3,4-dihydro-2H-chromen-7-yl)-3,4-dihydropyrido[4,3-d]pyrimidin-2(1H)-one], for which the “inhibitory rate (%)” value is on record as 118%. Next, `O=C1Nc2nccc(OCC(F)(F)F)c2CN1c1cc2c(cc1Cl)CCC(c1ncccc1F)O2` (centres unmarked) [Example 61, 3-(6-chloro-2-(3-fluoropyridin-2-yl)-3,4-dihydro-2H-chromen-7-yl)-5-(2,2,2-trifluoroethoxy)-3,4-dihydropyrido[2,3-d]pyrimidin-2(1H)-one]: 91%. Next, `COC(=O)c1ccc2c(c1)NC(=O)N(c1cc(OCc3cccc(F)c3F)ccc1C)C2` [Example 198, methyl 3-(5-((2,3-difluorobenzyl)oxy)-2-methylphenyl)-2-oxo-1,2,3,4-tetrahydroquinazoline-7-carboxylate]: 94%.
